Results reported in patent publication US10640457B2, “Histone acetyltransferase activators and uses thereof” (The Trustees of Columbia University in the City of New York, priority 2009, dated 2020).
“And” between values parts separate entries of the source, which are not always exact repeats. Equal entries are not always repeated. “Also recorded” adds a separate entry of the source.

Key:
[1] = test system: Aβ-infused mice; test: Contextual and cued fear conditioning in Aβ42-infused mice (TSA); type: in vivo
Text: HDAC inhibition rescues the defect in associative memory by Aβ elevation. The APP and PS1 transgenes could affect neuronal function through different mechanisms [B23, B24] (each herein incorporated by reference in its entirety), including direct effects by Aβ. Full-length APP and its cleavage products could differently impact H4 acetylation. To separate Aβ effects from other effects of APP and PS1 overexpression, we next determined whether Aβ per se is responsible for the deficit in H4 acetylation observed in our studies on transgenic mice. […] (each herein incorporated by reference in its entirety), we applied a preparation containing oligomeric Aβ42 (200 nM in a volume of […], slowly over 1 min) into dorsal hippocampi (FIG. 24A-B), 15 min prior to training for fear conditioning, with injection of TSA or vehicle (2 mg/kg body weight, 2 hrs prior to training, i.p.). Infusion occurred 5-7 days after implanting cannulas onto dorsal hippocampi. We found no difference in the freezing behavior among the 4 groups of mice during the training phase of the fear conditioning (F3,41=0.04188, p=0.9884, n=8-14/group; FIG. 24C). Twenty-four hours later, freezing behavior was decreased in Aβ-infused mice compared to vehicle-infused mice in the analysis of the contextual learning (F3,41=3.619, p=0.0209, n=8-14/group; FIG. 24C). Freezing in Aβ-infused mice was about 25% that of vehicle-infused mice [Aβ-infused mice: 8.580±2.119% vs. vehicle-infused mice: 31.46±5.373% n=12 and 11 males, respectively; t=3.147, p=0.0049; FIG. 24C].

[2] = molecular target: T1, p300 (Homo sapiens, UniProt Q09472); test: In vitro HAT activation assay, p300; type: biochemical; details: in vitro assays; FIG. 72
T1 construct: we will use the catalytic domain of human CBP, PCAF, p300 and GCNS (Enzo Life Sci., USA); purchased Enzo Life Sci
T1 sequence (Q09472 1287-1663 limits assumed): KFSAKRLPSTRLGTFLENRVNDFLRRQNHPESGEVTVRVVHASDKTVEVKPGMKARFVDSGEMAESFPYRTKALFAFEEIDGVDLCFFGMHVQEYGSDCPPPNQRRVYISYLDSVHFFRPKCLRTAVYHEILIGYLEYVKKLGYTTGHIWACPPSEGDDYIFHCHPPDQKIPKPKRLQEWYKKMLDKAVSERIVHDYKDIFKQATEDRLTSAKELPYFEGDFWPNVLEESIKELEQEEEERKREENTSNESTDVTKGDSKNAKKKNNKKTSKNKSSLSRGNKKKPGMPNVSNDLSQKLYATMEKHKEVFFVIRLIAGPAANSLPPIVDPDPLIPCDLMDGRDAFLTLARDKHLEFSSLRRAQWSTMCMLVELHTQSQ
Text: Compounds will be tested for HAT activator activity first, using the HAT Assay kit from Active Motif (USA, CA). For this assay, we will use the catalytic domain of human CBP, PCAF, p300 and GCNS (Enzo Life Sci., USA). The catalytic domains for the remaining HATs will be produced using New England Biolabs K. lactis Protein Expression Kit. […] When assayed against all other HATs, they must show at least a 50 fold greater potency towards CBP and/or PCAF.

[3] = test system: Aβ42-infused mice; test: Two day radial arm water maze in Aβ-infused mice (YF2); type: in vivo
Text: The task is a hybrid of the Morris Water Maze (MWM) and the radial arm land maze. This task is altered in Aβ-infused mice. The motivation for the animals is the immersion in water. The mouse needed to swim in 6 alleys (arms) radiating from a central area until it found a hidden (submerged) platform at the end of one of the arms, based on visual cues placed in the room. […] The first day of the protocol was a training day. Mice were trained to identify the platform location by alternating between a visible and a hidden platform in a goal arm. The final 3 trials on day 1 and all 15 trials on day 2 used a hidden escape platform to force mice to use spatial cues to identify the location of the goal arm.
To avoid learning limitations imposed by exhausting practice and to avoid fatigue that may result from consecutive trials, spaced practice training were established by running the mice in cohorts of 4 and alternating different cohorts through the 15 training trials over 3 hours testing periods each day. […] The number of incorrect arm entries (entries in arms with no platform) was counted. […] Failure to select an arm after 15 sec were counted as an error and the mouse was returned to the start arm. […]
Next, mice from the first cohort completed trials 7-12 again using the alternating visible-hidden platform location. […] For data analysis, averages for each mouse were calculated using blocks of 3 trials. […]

[4] = in vivo, ip
[5] = molecular target: HDAC5FL (Homo sapiens, UniProt Q9UQL6); test: HDAC5FL fluorogenic activity assay; details: Repeat1/Repeat2, listed as OA2
Chain of HDAC5FL (Q9UQL6 whole entry): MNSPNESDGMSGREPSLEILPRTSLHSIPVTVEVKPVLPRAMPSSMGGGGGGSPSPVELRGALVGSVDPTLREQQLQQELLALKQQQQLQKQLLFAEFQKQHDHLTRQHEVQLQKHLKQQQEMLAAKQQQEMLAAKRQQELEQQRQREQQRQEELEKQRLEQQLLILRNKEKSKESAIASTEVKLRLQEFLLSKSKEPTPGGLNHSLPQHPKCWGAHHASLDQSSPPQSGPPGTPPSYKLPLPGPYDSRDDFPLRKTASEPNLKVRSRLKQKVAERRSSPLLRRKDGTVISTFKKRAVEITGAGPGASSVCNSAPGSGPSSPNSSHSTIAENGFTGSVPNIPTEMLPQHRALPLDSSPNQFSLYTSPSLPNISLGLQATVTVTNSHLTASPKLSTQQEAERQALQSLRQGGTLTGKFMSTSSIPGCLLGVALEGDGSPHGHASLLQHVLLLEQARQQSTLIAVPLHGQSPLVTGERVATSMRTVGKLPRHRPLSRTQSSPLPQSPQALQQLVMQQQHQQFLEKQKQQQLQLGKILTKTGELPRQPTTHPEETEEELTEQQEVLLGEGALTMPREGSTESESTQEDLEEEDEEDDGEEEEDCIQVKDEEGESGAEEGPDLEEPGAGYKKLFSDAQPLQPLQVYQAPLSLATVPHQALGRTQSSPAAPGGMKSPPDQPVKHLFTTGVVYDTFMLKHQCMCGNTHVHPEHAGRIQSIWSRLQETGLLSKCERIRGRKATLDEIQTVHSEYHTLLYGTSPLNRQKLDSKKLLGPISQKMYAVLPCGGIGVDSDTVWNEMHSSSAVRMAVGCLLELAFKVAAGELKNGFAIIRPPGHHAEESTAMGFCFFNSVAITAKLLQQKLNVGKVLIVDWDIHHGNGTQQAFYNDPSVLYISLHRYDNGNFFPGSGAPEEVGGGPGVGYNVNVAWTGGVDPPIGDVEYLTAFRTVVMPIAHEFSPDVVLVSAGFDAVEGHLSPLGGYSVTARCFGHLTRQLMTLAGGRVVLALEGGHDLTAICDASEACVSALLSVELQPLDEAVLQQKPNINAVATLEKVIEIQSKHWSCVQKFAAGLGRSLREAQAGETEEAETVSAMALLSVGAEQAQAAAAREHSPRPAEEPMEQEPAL

Row | SMILES | freezing time relative to Aβ-infused mice ([1]; Aβ-infused mice injected with TSA) | deficit in freezing responses in Aβ-infused mice ([1]; TSA i.p. 2 hrs before training) | freezing, contextual fear conditioning 24 hrs after training ([1]; TSA+Aβ treated mice, TSA 2 mg/kg i.p. 2 hrs prior to training, Aβ42 200 nM) [%] | freezing, contextual fear conditioning 24 hrs after training ([1]; TSA-treated, vehicle-infused mice) [%] | cued fear conditioning, freezing among the 4 groups ([1]; pre-CS and CS) | effect on p300 activity [2] | RAWM performance, compound by itself ([3]; 5 mg/kg i.p., no Aβ) | Aβ-induced reference memory impairment (RAWM errors) ([3]; Aβ42-infused mice, i.p. 5 mg/kg 30 min prior to 1st and 7th trial, 5 mg/kg) | dose up to which no adverse effects were induced [4] | % Activity ([5]; OA2 Log[nM] 0.5) | % Activity ([5]; OA2 Log[nM] 1.0) | % Activity ([5]; OA2 Log[nM] 1.5) | % Activity ([5]; OA2 Log[nM] 2.0) | % Activity ([5]; OA2 Log[nM] 2.5) | % Activity ([5]; OA2 Log[nM] 3.0) | % Activity ([5]; OA2 Log[nM] 3.5) | % Activity ([5]; OA2 Log[nM] 4.0) | % Activity ([5]; OA2 Log[nM] 4.5) | % Activity ([5]; OA2 Log[nM] 5.3)
1 | CC(/C=C/C(=O)NO)=C\[C@@H](C)C(=O)c1ccc(N(C)C)cc1 [TSA, trichostatin A] | about 300% | ameliorates | 26.17±4.747 | 27.01±7.246 | did not find a difference |  |  |  |  |  |  |  |  |  |  |  |  |  | 
2 | CCOc1cccc(OCCN(C)C)c1C(=O)Nc1ccc(Cl)c(C(F)(F)F)c1 [YF2] |  |  |  |  |  | did not interfere; also recorded: increases p300 activity | did not affect | ameliorated; also recorded: rescued | up to 300 mg/kg | 99.80% and 92.90% | 102.59% and 97.50% | 103.20% and 104.10% | 108.64% and 106.80% | 108.60% and 107.17% | 105.76% and 99.80% | 101.30% and 99.30% | 104.91% and 104.82% | 95.40% and 94.11% | 68.63% and 94.13%
